Data: the supplement of paper PMC6965134
± gives the standard deviation of the averaged measurements.

Test: TIMS collisional cross section (CCS, N2) of the lipid ion; higher = larger ion cross section
Conditions: ionization mode: positive, one isomer drawn

Row | SMILES | TIMS collisional cross section (sample type: HeLa) [Å²] | TIMS collisional cross section (sample type: plasma) [Å²] | TIMS collisional cross section (sample type: Liver) [Å²]
1 | CCCCC/C=C\C/C=C\C/C=C\C/C=C\CCCC(=O)OC[C@@H](COC(=O)CCCCCCCCCCCCC)OC(=O)CCCCCCC/C=C\CCCCCC [TG 14:0_16:1_20:4] (ion (formula + adduct): [C53H92O6+NH4] 1+) | 311 |  | 
2 | CCCCC/C=C\C/C=C\C/C=C\CCCCC(=O)OC[C@@H](O)COP(=O)(O)OCCN [LPE 18:3] (ion (formula + adduct): [C23H42NO7P+H] 1+) |  | 208.3 | 
3 | CCCCC/C=C\C=C\CCCCCCCCC(=O)O[C@H](COC(=O)CCCCCCCCCCCCCCC)COP(=O)([O-])OCC[N+](C)(C)C [PC 16:0@_18:2] (ion (formula + adduct): [C42H80NO8P+H] 1+) |  | 284.9 | 283.5
4 | CCCCCC/C=C\CCCCCCCC(=O)OC[C@@H](COC(=O)CCCCCCCCCCCCCC)OC(=O)CCCCCCCCCCCCCC [TG 15:0_15:0_16:1] (ion (formula + adduct): [C49H92O6+NH4] 1+) | 305.9 |  | 
5 | CCCCCCCCCCCCCCCCC(=O)OC[C@@H](COC(=O)CCCCCCCCCCCCC)OC(=O)CCCCCCCCCCCCC [TG 14:0_14:0_17:0] (ion (formula + adduct): [C48H92O6+NH4] 1+) | 304.6 |  | 
6 | CCCCC/C=C\C/C=C\C/C=C\C/C=C\C/C=C\CCC(=O)O[C@H](COC(=O)CCCCCCCCCCCCCCCCC)COP(=O)([O-])OCC[N+](C)(C)C [PC 18:0@_22:5] (ion (formula + adduct): [C48H86NO8P+H] 1+) | 298.9 | 299.3 ± 0.42 | 
7 | CCCCC/C=C\C/C=C\CCCCCCCC(=O)O[C@H](COC(=O)CCCCCCCCCCCCCC)COP(=O)([O-])OCC[N+](C)(C)C [PC 15:0@_18:2] (ion (formula + adduct): [C41H78NO8P+H] 1+) |  | 280.9 | 281
8 | CCCCC/C=C\C/C=C\C/C=C\C/C=C\CCCC(=O)OC[C@@H](COC(=O)CCCCCCC/C=C\CCCCCC)OC(=O)CCCCCCC/C=C\CCCCCCCC [TG 16:1_18:1_20:4] (ion (formula + adduct): [C57H98O6+NH4] 1+) |  |  | 323.5
9 | CCCCCCCC/C=C\CCCCCCCCCCCCCC(=O)OC[C@@H](O)COP(=O)([O-])OCC[N+](C)(C)C [LPC 24:1] (ion (formula + adduct): [C32H64NO7P+H] 1+) | 253.5 | 253.3 | 253.85 ± 0.49
10 | CCCCCCCCCCCCCCCCCCOC[C@H](COP(=O)([O-])OCC[N+](C)(C)C)OC(=O)CCCCCCCCCCCCCCC [PC O- 18:0@_16:0] (ion (formula + adduct): [C42H86NO7P+H] 1+) | 293.3 |  | 
11 | CCCCC/C=C/C/C=C/C/C=C/C/C=C/CCCC(=O)O[C@H](COCCCCCCCCCCCCCCCC)COP(=O)([O-])OCC[N+](C)(C)C [PC O- 16:0@_20:4] (ion (formula + adduct): [C44H82NO7P+H] 1+) | 290.4 |  | 
12 | CCCCCCCCCCCCCCCC(=O)OC[C@H](COP(=O)([O-])OCC[N+](C)(C)C)OC(=O)CCCCCCCC=O [Oxidized PC 16:0_9:0@] (ion (formula + adduct): [C33H64NO9P+H] 1+) | 257.85 ± 1.6 | 257 ± 0.14 | 
13 | [C@]12(CC=C3C[C@@H](O)CC[C@]3(C)[C@@]1([H])CC[C@]1(C)[C@@]([H])([C@@](C)([H])CC[C@@H]3O[C@@]3(C)C)CC[C@@]21[H])[H] [24,25-epoxy-cholesterol] (ion (formula + adduct): [C27H44O2+H] 1+) | 210.4 | 210.5 | 209.6
14 | CCCCC/C=C\C/C=C\C/C=C\C/C=C\CCCC(=O)OC[C@@H](COC(=O)CCCCCCC/C=C\CCCCCCCC)OC(=O)CCCCCCC/C=C\C/C=C\CCCCC [TG 18:1_18:2_20:4] (ion (formula + adduct): [C59H100O6+NH4] 1+) |  |  | 325.7
15 | CCCCCCCC/C=C\CCCCCCCC(=O)OC[C@@H](COC(=O)CCCCCCCCCCCC)OC(=O)CCCCCCCCCCCCCCC [TG 13:0_16:0_18:1] (ion (formula + adduct): [C50H94O6+NH4] 1+) |  | 309.5 | 
16 | CCCCCCCC/C=C\C/C=C\C/C=C\CCCC(=O)O[C@H](COC(=O)CCCCCCCCCCCCCCC)COP(=O)([O-])OCC[N+](C)(C)C [PC 16:0@_20:3] (ion (formula + adduct): [C44H82NO8P+H] 1+) |  |  | 289.8
